“And” between values parts separate entries of the source, which are not always exact repeats. Identical values can stand only once. Inconclusive results and toxic doses are left out.
Tested on: BDF1 mice, P388 leukemia ip, median survival T/C
Assay: NCI In Vivo Anticancer Drug Screen. Data for tumor model P388 Leukemia (intraperitoneal) in B6D2F1 (BDF1) mice
Conditions: endpoint: median survival time, higher = longer survival
Summary of the method: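 In tumour-bearing mice, survival after compound treatment is set against the vehicle group and given as a quotient.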

[1] = dose: 50.0 mg/kg/injection, schedule: Q01DX009 (ip), vehicle: saline
[2] = dose: 100.0 mg/kg/injection, schedule: Q01DX009 (ip), vehicle: saline
[3] = dose: 50.0 mg/kg/injection, schedule: Q01DX009 (ip), vehicle: saline with Tween-80
[4] = dose: 100.0 mg/kg/injection, schedule: Q01DX009 (ip), vehicle: saline with Tween-80
[5] = dose: 200.0 mg/kg/injection, schedule: Q01DX009 (ip), vehicle: saline with Tween-80
[6] = dose: 400.0 mg/kg/injection, schedule: Q01DX009 (ip), vehicle: saline with Tween-80
[7] = dose: 150.0 mg/kg/injection, schedule: Q01DX001 (ip), vehicle: saline
[8] = dose: 300.0 mg/kg/injection, schedule: Q01DX001 (ip), vehicle: saline
[9] = dose: 100.0 mg/kg/injection, schedule: Q04DX003 (ip), vehicle: saline
[10] = dose: 100.0 mg/kg/injection, schedule: Q04DX003 (ip), vehicle: saline with Tween-80
[11] = dose: 200.0 mg/kg/injection, schedule: Q04DX003 (ip), vehicle: saline with Tween-80
[12] = dose: 400.0 mg/kg/injection, schedule: Q04DX003 (ip), vehicle: saline with Tween-80

In the case of `COc1cccc2c1C(=O)c1c(O)c3c(c(O)c1C2=O)C[C@@](O)(/C(C)=N\NC(=O)CO)C[C@@H]3OC1CC(N)C(O)C(C)O1` (stereo partly drawn), the T/C (dose: 0.27 mg/kg/injection, schedule: Q01DX009 (ip), vehicle: saline) is reported as 172 % of control, the T/C (dose: 0.4 mg/kg/injection, schedule: Q01DX009 (ip), vehicle: saline) is reported as 183 % of control and the T/C (dose: 0.6 mg/kg/injection, schedule: Q01DX009 (ip), vehicle: saline) is reported as 190 % of control. The T/C (dose: 0.9 mg/kg/injection, schedule: Q01DX009 (ip), vehicle: saline) was 186 % of control, the T/C (dose: 1.87 mg/kg/injection, schedule: Q01DX009 (ip), vehicle: saline) was 248 % of control and the T/C (dose: 2.2 mg/kg/injection, schedule: Q04DX003 (ip), vehicle: saline) was 159 % of control and 172 % of control. For the same molecule, the T/C (dose: 3.3 mg/kg/injection, schedule: Q04DX003 (ip), vehicle: saline) was 154 % of control and 213 % of control, the T/C (dose: 3.75 mg/kg/injection, schedule: Q01DX009 (ip), vehicle: saline) was 182 % of control and the T/C (dose: 5.0 mg/kg/injection, schedule: Q04DX003 (ip), vehicle: saline) was 163 % of control and 209 % of control. The T/C (dose: 7.5 mg/kg/injection, schedule: Q01DX009 (ip), vehicle: saline) was 115 % of control, the T/C (dose: 7.5 mg/kg/injection, schedule: Q04DX003 (ip), vehicle: saline) was 150 % of control and 200 % of control and the T/C (dose: 29.0 micrograms/kg/injection, schedule: Q01DX009 (ip), vehicle: saline) was 110 % of control. For the same molecule, the T/C (dose: 44.0 micrograms/kg/injection, schedule: Q01DX009 (ip), vehicle: saline) was 116 % of control.

For `Cc1nnc(NS(=O)(=O)c2ccc(N=Nc3nc4[nH]c(N)nc(=S)c4[nH]3)cc2)s1`, the T/C (dose: 5.5 mg/kg/injection, schedule: Q01DX009 (ip), vehicle: saline) was 114 % of control, the T/C (dose: 12.5 mg/kg/injection, schedule: Q04DX003 (ip), vehicle: Klucel (hydroxypropylcellulose) (HPC)) was 95 % of control and the T/C (dose: 25.0 mg/kg/injection, schedule: Q04DX003 (ip), vehicle: Klucel (hydroxypropylcellulose) (HPC)) was 104 % of control. The T/C (dose: 50.0 mg/kg/injection, schedule: Q04DX003 (ip), vehicle: Klucel (hydroxypropylcellulose) (HPC)) was 100 % of control, the T/C (dose: 80.0 mg/kg/injection, schedule: Q01DX009 (ip), vehicle: Klucel (hydroxypropylcellulose) (HPC)) was 155 % of control and the T/C (dose: 170.0 mg/kg/injection, schedule: Q01DX009 (ip), vehicle: saline) was 172 % of control.

With `CCc1nnc2ncccn12` the T/C [1] was 97 % of control and 102 % of control and 104 % of control, the T/C [2] was 104 % of control and 107 % of control and the T/C (dose: 200.0 mg/kg/injection, schedule: Q01DX009 (ip), vehicle: saline) was 91 % of control and 100 % of control.

With `C=C(C)C(=O)OC1CC2=CC(CC3(C)OC3C3OC(=O)C(=C)C13)OC2=O` (stereo not drawn) the T/C (dose: 4.5 mg/kg/injection, schedule: Q01DX009 (ip), vehicle: Klucel (hydroxypropylcellulose) (HPC)) was 101 % of control, the T/C (dose: 18.0 mg/kg/injection, schedule: Q01DX009 (ip), vehicle: Klucel (hydroxypropylcellulose) (HPC)) was 106 % of control and the T/C (dose: 36.0 mg/kg/injection, schedule: Q01DX009 (ip), vehicle: Klucel (hydroxypropylcellulose) (HPC)) was 117 % of control.

`N#CCCN(C(=O)Nc1ccc(Cl)c(Cl)c1)C1CCCCC1` was tested, and the T/C [3] was 124 % of control, the T/C [4] was 104 % of control and the T/C [5] was 94 % of control. The T/C [6] was 97 % of control.

For `O=C1c2ccc(O)cc2C(=O)c2ccc(O)cc21`, the T/C (dose: 66.0 mg/kg/injection, schedule: Q01DX009 (ip), vehicle: saline with Tween-80) was 109 % of control, the T/C [4] was 109 % of control and the T/C (dose: 150.0 mg/kg/injection, schedule: Q01DX009 (ip), vehicle: saline with Tween-80) was 109 % of control. The T/C [6] was 120 % of control.

With `CNC(=O)NC1C(O)COC(OC)C1O` (stereo not drawn) the T/C [7] was 104 % of control and the T/C [8] was 109 % of control.

With `COc1ccc(C[C@@H]2NC[C@@H](O)[C@@H]2OC(C)=O)cc1` the T/C (dose: 6.25 mg/kg/injection, schedule: Q04DX002 (ip), vehicle: saline with Tween-80) was 100 % of control, the T/C (dose: 12.5 mg/kg/injection, schedule: Q04DX002 (ip), vehicle: saline with Tween-80) was 106 % of control and the T/C (dose: 22.0 mg/kg/injection, schedule: Q01DX009 (ip), vehicle: saline) was 106 % of control. The T/C (dose: 25.0 mg/kg/injection, schedule: Q04DX002 (ip), vehicle: saline with Tween-80) was 100 % of control, the T/C (dose: 33.0 mg/kg/injection, schedule: Q01DX009 (ip), vehicle: saline with Tween-80) was 112 % of control and the T/C (dose: 33.0 mg/kg/injection, schedule: Q01DX009 (ip), vehicle: saline) was 106 % of control. The T/C (dose: 44.0 mg/kg/injection, schedule: Q04DX003 (ip), vehicle: saline) was 102 % of control, the T/C [3] was 113 % of control and the T/C [1] was 106 % of control. For the same molecule, the T/C (dose: 50.0 mg/kg/injection, schedule: Q04DX002 (ip), vehicle: saline with Tween-80) was 97 % of control, the T/C (dose: 66.0 mg/kg/injection, schedule: Q01DX001 (ip), vehicle: saline) was 111 % of control and the T/C (dose: 66.0 mg/kg/injection, schedule: Q04DX003 (ip), vehicle: saline) was 105 % of control. For the same molecule, the T/C (dose: 75.0 mg/kg/injection, schedule: Q01DX009 (ip), vehicle: saline with Tween-80) was 113 % of control, the T/C (dose: 100.0 mg/kg/injection, schedule: Q01DX001 (ip), vehicle: saline) was 104 % of control and the T/C [2] was 109 % of control. The T/C (dose: 100.0 mg/kg/injection, schedule: Q04DX002 (ip), vehicle: saline with Tween-80) was 104 % of control, the T/C [9] was 111 % of control and the T/C (dose: 113.0 mg/kg/injection, schedule: Q01DX009 (ip), vehicle: saline with Tween-80) was 120 % of control. The T/C [7] was 107 % of control, the T/C (dose: 150.0 mg/kg/injection, schedule: Q04DX003 (ip), vehicle: saline) was 110 % of control and the T/C (dose: 169.0 mg/kg/injection, schedule: Q01DX009 (ip), vehicle: saline with Tween-80) was 116 % of control. For the same molecule, the T/C (dose: 225.0 mg/kg/injection, schedule: Q01DX001 (ip), vehicle: saline) was 103 % of control, the T/C (dose: 225.0 mg/kg/injection, schedule: Q04DX003 (ip), vehicle: saline) was 105 % of control and the T/C (dose: 338.0 mg/kg/injection, schedule: Q01DX001 (ip), vehicle: saline) was 102 % of control.

With `COc1cc2c(c(OC)c1OC)-c1ccc(N)c(=O)cc1[C@@H](NC(C)=O)CC2` the T/C (dose: 0.5 mg/kg/injection, schedule: Q01DX010 (ip), vehicle: saline) was 113 % of control and the T/C (dose: 2.0 mg/kg/injection, schedule: Q01DX010 (ip), vehicle: saline) was 118 % of control.

For `c1ccc(N=NC2=NN(c3ccccc3)CCS2)cc1`, the T/C (dose: 25.0 mg/kg/injection, schedule: Q01DX009 (ip), vehicle: saline with Tween-80) was 116 % of control, the T/C [3] was 105 % of control and the T/C [4] was 122 % of control.

With `CC1(C)COP(OCC(F)(F)F)OC1` the T/C (dose: 25.0 mg/kg/injection, schedule: Q01DX005 (ip), vehicle: saline with Tween-80) was 92 % of control, the T/C (dose: 50.0 mg/kg/injection, schedule: Q01DX005 (ip), vehicle: saline with Tween-80) was 94 % of control and the T/C (dose: 100.0 mg/kg/injection, schedule: Q01DX005 (ip), vehicle: saline with Tween-80) was 94 % of control.

For `COc1cc2c(cc1OC)C1CCN3C(=O)CCC3N1CC2` (stereo not drawn), the T/C [10] was 88 % of control, the T/C [5] was 92 % of control and the T/C [11] was 92 % of control. The T/C [6] was 104 % of control and the T/C [12] was 96 % of control.

In the case of `O=S1(=O)CCCO1`, the T/C [3] is reported as 95 % of control and the T/C [4] is reported as 113 % of control.

`O=[N+]([O-])c1ccc(N2CCN(c3cccc(C(F)(F)F)c3)CC2)c([N+](=O)[O-])c1` was tested, and the T/C [10] was 113 % of control, the T/C [11] was 100 % of control and the T/C [12] was 100 % of control.

For `NNC(=O)c1ccccn1`, the T/C (dose: 25.0 mg/kg/injection, schedule: Q01DX009 (ip), vehicle: saline) was 92 % of control, the T/C [1] was 100 % of control and the T/C [2] was 100 % of control. The T/C [9] was 88 % of control.

With `C=CC1C2CCC(C2)C1Cl` (stereo not drawn) the T/C (dose: 50.0 mg/kg/injection, schedule: Q01DX009 (ip), vehicle: other) was 100 % of control, the T/C (dose: 100.0 mg/kg/injection, schedule: Q01DX009 (ip), vehicle: other) was 104 % of control and the T/C (dose: 200.0 mg/kg/injection, schedule: Q01DX009 (ip), vehicle: other) was 107 % of control.

`FC1(F)C(F)(F)C(Cl)(Cl)C1(Cl)Cl` was tested, and the T/C (dose: 75.0 mg/kg/injection, schedule: Q01DX001 (ip), vehicle: saline) was 100 % of control, the T/C [7] was 109 % of control and the T/C [8] was 104 % of control.

For `CCCCCC1c2c(cc(C)[nH]c2=O)OC(O)C1CCCC` (stereo not drawn), the T/C [3] was 93 % of control, the T/C [4] was 90 % of control and the T/C [5] was 94 % of control.

`O=[N+]([O-])c1ccc(N/N=C/C(Br)(Br)Br)c([N+](=O)[O-])c1` was tested, and the T/C [3] was 111 % of control, the T/C [4] was 104 % of control and the T/C [5] was 103 % of control.

Source: PubChem BioAssay AID328 (DTP/NCI, 2004)
